# From patent publication US20250282760A1 (Merck Sharp & Dohme LLC, priority 2022, published 2025)
# Biological target: T1, human OX2R (Homo sapiens, UniProt O43614)
# T1 construct: expressed in transfected cells; host or cells: Chinese hamster ovary (CHO) cells, kept under G418 selection
# T1 sequence (O43614 1-444): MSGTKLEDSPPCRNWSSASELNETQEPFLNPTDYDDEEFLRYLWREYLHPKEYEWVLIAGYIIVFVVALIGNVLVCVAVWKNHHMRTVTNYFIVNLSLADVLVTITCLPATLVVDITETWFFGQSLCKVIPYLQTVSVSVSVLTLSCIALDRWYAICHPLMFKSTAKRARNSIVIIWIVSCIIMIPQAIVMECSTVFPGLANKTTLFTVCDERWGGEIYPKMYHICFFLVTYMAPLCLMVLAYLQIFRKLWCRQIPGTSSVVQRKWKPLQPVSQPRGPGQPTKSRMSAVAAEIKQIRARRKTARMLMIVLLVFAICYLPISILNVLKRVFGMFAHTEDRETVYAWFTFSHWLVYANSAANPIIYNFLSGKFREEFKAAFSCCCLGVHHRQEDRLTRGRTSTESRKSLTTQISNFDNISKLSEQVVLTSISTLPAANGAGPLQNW
# Test: IPOne (IP-1 accumulation) assay of orexin receptor agonist activity in CHO cells expressing human OX2R
# Type: cell-based
# Settings: for IC50: CHO cells expressing human OX2R, IP-One assay, 2 hours incubation, four parameter logistic fit, read-out: hOX2R_IP IC50; for Emax: CHO, percent activity at maximum tested concentration, relative to reference compound at 1 uM (100% activity) for human OX2R
# Source text: The utility of the compounds in accordance with the present invention as orexin receptor OX1R and/or OX2R agonists may be readily determined without undue experimentation by methodology well known in the art. Both the OX1R and/or OX2R G-coupled protein receptors (GPCRs) couple through the Gαq signaling pathway, which ultimately promotes calcium mobilization via inositol triphosphate (IP3) production. […] The utility of the compounds in accordance with the present invention as orexin receptor OX1R and/or OX2R agonists may be determined utilizing this assay.
# In a typical experiment, the OX1 and OX2 receptor agonist activity is determined in accordance with the following general experimental method. Chinese hamster ovary (CHO) cells expressing human OX1R and/or the human OX2R were grown in Iscove's modified DMEM containing glutaMAX™, 1% G418, 100 U/mL penicillin, 100 μg/mL streptomycin and 10% heat-inactivated qualified fetal bovine serum (FBS). […] During this incubation, IP-one detection reagents were prepared (38:1:1 lysis buffer:D2:AB-cryptate reagents).
# For each compound, data were fit to a four parameter logistic fit (ActivityBase software) and the EC50 was reported as the inflection point of the resulting curve. Percent effect for each test compound was determined as the percentage of sample raw value/mean max effect, where the mean max effect was derived from the mean raw value of 32 control wells per assay plate (using Orexin A (cat #003-30) at 1 μM for human OX1R and a reference compound at 1 uM with 100% activity previously established by comparison to Orexin A for human OX2R). The intrinsic orexin receptor agonist activity of a compound which may be used in the present invention may be determined by these assays.
IC50 [nM],Emax [%],SMILES
245,100,"CC(C)C(=O)N1[C@H](C)CN(S(=O)(=O)c2ccccc2)C[C@@H]1C(=O)NCc1ccc2ccccc2c1 (relative stereo) [Example 19-1, cis-1-isobutyryl-6-methyl-N-(naphthalen-2-ylmethyl)-4-(phenylsulfonyl)piperazine-2-carboxamide]"
68.9,87.1,"CC(C)C(=O)N1[C@H](C)CN(S(=O)(=O)c2ccccc2)C[C@@H]1C(=O)NCc1ccc(-c2ccccc2)cc1 (relative stereo) [Example 19-3, cis-N-([1,1′-biphenyl]-4-ylmethyl)-1-isobutyryl-6-methyl-4-(phenylsulfonyl)piperazine-2-carboxamide]"
70.2,101,"CC(C)C(=O)N1[C@H](C)CN(S(=O)(=O)c2ccccc2)C[C@@H]1C(=O)NCc1ccc(OC(C)(F)F)cc1 (relative stereo) [Example 19-4, cis-N-(4-(1,1-difluoroethoxy)benzyl)-1-isobutyryl-6-methyl-4-(phenylsulfonyl)piperazine-2-carboxamide]"
79.5,101,"CC(C)C(=O)N1[C@H](C)CN(S(=O)(=O)c2ccccc2)C[C@@H]1C(=O)NCc1ccc(-c2ncccn2)cc1 (relative stereo) [Example 19-5, cis-1-isobutyryl-6-methyl-4-(phenylsulfonyl)-N-(4-(pyrimidin-2-yl)benzyl)piperazine-2-carboxamide]"
81.3,98.7,"CC(C)C(=O)N1[C@H](C)CN(S(=O)(=O)c2ccccc2)C[C@@H]1C(=O)NCc1ccc(-c2nccs2)cc1 (relative stereo) [Example 19-6, cis-1-isobutyryl-6-methyl-4-(phenylsulfonyl)-N-(4-(thiazol-2-yl)benzyl)piperazine-2-carboxamide]"
82.2,101,"CC(C)C(=O)N1[C@H](C)CN(S(=O)(=O)c2ccccc2)C[C@@H]1C(=O)NCc1ccc(-n2nccn2)cc1 (relative stereo) [Example 19-7, cis-N-(4-(2H-1,2,3-triazol-2-yl)benzyl)-1-isobutyryl-6-methyl-4-(phenylsulfonyl)piperazine-2-carboxamide]"
146,99.5,"CC(C)C(=O)N1[C@H](C)CN(S(=O)(=O)c2ccccc2)C[C@@H]1C(=O)NCc1ccc(-c2ncco2)cc1 (relative stereo) [Example 19-8, cis-1-isobutyryl-6-methyl-N-(4-(oxazol-2-yl)benzyl)-4-(phenylsulfonyl)piperazine-2-carboxamide]"
409,99.2,"CC(C)C(=O)N1[C@H](C)CN(S(=O)(=O)c2ccccc2)C[C@@H]1C(=O)NCc1ccc(-n2cccn2)cc1 (relative stereo) [Example 19-9, cis-N-(4-(1H-pyrazol-1-yl)benzyl)-1-isobutyryl-6-methyl-4-(phenylsulfonyl)piperazine-2-carboxamide]"
158,93.8,"CCCc1ccc(CNC(=O)[C@H]2CN(S(=O)(=O)c3ccccc3)C[C@@H](C)N2C(=O)C(C)C)cc1 (relative stereo) [Example 19-10, cis-1-isobutyryl-6-methyl-4-(phenylsulfonyl)-N-(4-propylbenzyl)piperazine-2-carboxamide]"
264,93.1,"CCOc1ccc(CNC(=O)[C@H]2CN(S(=O)(=O)c3ccccc3)C[C@@H](C)N2C(=O)C(C)C)cc1 (relative stereo) [Example 19-11, cis-N-(4-ethoxybenzyl)-1-isobutyryl-6-methyl-4-(phenylsulfonyl)piperazine-2-carboxamide]"
92.2,90.7,"CC(C)C(=O)N1[C@H](C)CN(S(=O)(=O)c2ccccc2)C[C@@H]1C(=O)NCc1ccc(-c2ccccc2F)cc1 (relative stereo) [Example 21, cis-N-((2′-fluoro-[1,1′-biphenyl]-4-yl)methyl)-1-isobutyryl-6-methyl-4-(phenylsulfonyl)piperazine-2-carboxamide]"
108,98.9,"CC(C)C(=O)N1[C@H](C)CN(S(=O)(=O)c2ccccc2)C[C@@H]1C(=O)NCc1ccc(-c2ccco2)cn1 (relative stereo) [Example 23, cis-N-((5-(furan-2-yl)pyridin-2-yl)methyl)-1-isobutyryl-6-methyl-4-(phenylsulfonyl)piperazine-2-carboxamide]"
11.2,100,"CC(C)C(=O)N1[C@H](C)CN(S(=O)(=O)c2ccccc2)C[C@@H]1C(=O)NCc1ccc(-c2ccco2)c(F)c1 (relative stereo) [Example 26, cis-N-(3-fluoro-4-(furan-2-yl)benzyl)-1-isobutyryl-6-methyl-4-(phenylsulfonyl)piperazine-2-carboxamide]"
13.1,99.6,"Cc1cc(-c2ccco2)ccc1CNC(=O)[C@H]1CN(S(=O)(=O)c2ccccc2)C[C@@H](C)N1C(=O)C(C)C (relative stereo) [Example 29, cis-N-(4-(furan-2-yl)-2-methylbenzyl)-1-isobutyryl-6-methyl-4-(phenylsulfonyl)piperazine-2-carboxamide]"
58.5,99.9,"CC(C)C(=O)N1[C@H](C)CN(S(=O)(=O)c2ccccc2)C[C@@H]1C(=O)NCc1ccc(-c2ccco2)cc1F (relative stereo) [Example 32, cis-N-(2-fluoro-4-(furan-2-yl)benzyl)-1-isobutyryl-6-methyl-4-(phenylsulfonyl)piperazine-2-carboxamide]"
121,100,"CC(C)C(=O)N1[C@H](C)CN(S(=O)(=O)c2ccccc2)C[C@@H]1C(=O)NCc1ccc(-c2ccccn2)cc1 (relative stereo) [Example 42-1, cis-1-isobutyryl-6-methyl-4-(phenylsulfonyl)-N-(4-(pyridin-2-yl)benzyl)piperazine-2-carboxamide]"
19200,38.4,"COc1cc(CNC(=O)[C@H]2CN(S(=O)(=O)c3ccccc3)C[C@@H](C)N2C(=O)C(C)C)ccc1-c1ccco1 (relative stereo) [Example 47-1, cis-N-(4-(furan-2-yl)-3-methoxybenzyl)-1-isobutyryl-6-methyl-4-(phenylsulfonyl)piperazine-2-carboxamide]"
144,98.3,"CC(C)C(=O)N1[C@H](C)CN(S(=O)(=O)c2ccccc2)C[C@@H]1C(=O)NCc1ccc(-c2ccco2)c(C#N)c1 (relative stereo) [Example 47-2, cis-N-(3-cyano-4-(furan-2-yl)benzyl)-1-isobutyryl-6-methyl-4-(phenylsulfonyl)piperazine-2-carboxamide]"
29.5,99.7,"CC(C)C(=O)N1[C@H](C)CN(S(=O)(=O)c2ccccc2)C[C@@H]1C(=O)NCc1cc(F)c(-c2ccco2)c(F)c1 (relative stereo) [Example 47-3, cis-N-(3,5-difluoro-4-(furan-2-yl)benzyl)-1-isobutyryl-6-methyl-4-(phenylsulfonyl)piperazine-2-carboxamide]"
27.9,94.2,"COc1cc(-c2ccco2)ccc1CNC(=O)[C@H]1CN(S(=O)(=O)c2ccccc2)C[C@@H](C)N1C(=O)C(C)C (relative stereo) [Example 47-4, cis-N-(4-(furan-2-yl)-2-methoxybenzyl)-1-isobutyryl-6-methyl-4-(phenylsulfonyl)piperazine-2-carboxamide]"
14.6,106,"Cc1cc(-c2ccco2)c(F)cc1CNC(=O)[C@@H]1CN(S(=O)(=O)c2ccccc2)C[C@H](C)N1C(=O)C(C)C (relative stereo) [Example 47-5, cis-N-(5-fluoro-4-(furan-2-yl)-2-methylbenzyl)-1-isobutyryl-6-methyl-4-(phenylsulfonyl) piperazine-2-carboxamide]"
10.9,99.5,"CCc1cc(-c2ccco2)ccc1CNC(=O)[C@H]1CN(S(=O)(=O)c2ccccc2)C[C@@H](C)N1C(=O)C(C)C (relative stereo) [Example 47-6, cis-N-(2-ethyl-4-(furan-2-yl)benzyl)-1-isobutyryl-6-methyl-4-(phenylsulfonyl)piperazine-2-carboxamide]"
